Bounds are passed on as bounds.

The test system of the first experiment is Lox-IMVI melanoma cell line. Kind of experiment: Lox-IMVI anti-proliferative assay (growth inhibition, Cell Titer-Glo). Format: cell-based, human. As to conditions: Homo sapiens; IC50 activity level in the cell-based Lox-IMVI anti-proliferative assay; read-out: Activity. The method in brief: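 IC50 values reflect the concentration giving 50% of DMSO-control luminescence after 72 h of treatment, fitted with a four-parameter logistic model. Cells were cultured in RPMI + 10% FBS with compound from 0.5 nM to 10 μM.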
(In general: In ATP-based viability assays light output follows the ATP content of the culture.)
Regarding `NC(=O)[C@H]1CC[C@@H](n2c(Nc3c(F)cccc3Cl)nc3cnc(NC4CC(F)(F)C4)nc32)CC1` [Example 225, (1s,4s)-4-(8-(2-chloro-6-fluorophenylamino)-2-(3,3-difluorocyclobutylamino)-9H-purin-9-yl)cyclohexanecarboxamide], the IC50 is more than 1 µM. The same measure, in the same setting: for `NC(=O)[C@H]1CC[C@@H](n2c(Nc3ccc(Cl)c(F)c3F)nc3cnc(NC4CCOCC4)nc32)CC1` [Example 72, (1s,4s)-4-(8-(4-chloro-2,3-difluorophenylamino)-2-(tetrahydro-2H-pyran-4-ylamino)-9H-purin-9-yl)cyclohexanecarboxamide] the value was 0.25 to 0.5 µM; for `CC(C)(C)OC(=O)N1CCC[C@@H](Nc2ncc3nc(Nc4c(Cl)cc(Cl)cc4Cl)n([C@H]4CC[C@@H](C(N)=O)CC4)c3n2)C1` [Example 163, (R)-tert-butyl 3-(9-((1s,4S)-4-carbamoylcyclohexyl)-8-(2,4,6-trichlorophenylamino)-9H-purin-2-ylamino)piperidine-1-carboxylate], more than 1 µM; for `NC(=O)[C@H]1CC[C@@H](n2c(Nc3c(F)cc(F)cc3Cl)nc3cnc(N[C@H]4CCOC4)nc32)CC1` [Example 241, (1R,4s)-4-(8-(2-chloro-4,6-difluorophenylamino)-2-((S)-tetrahydrofuran-3-ylamino)-9H-purin-9-yl)cyclohexanecarboxamide], more than 1 µM. Still for that read-out and setting: in the case of `C[C@@H]1CC[C@@H](Nc2ncc3nc(Nc4c(F)ccc(F)c4F)n([C@H]4CC[C@@H](C(N)=O)CC4)c3n2)C[C@H]1O` [Example 359, (1S,4s)-4-(2-((1R,3R,4R)-3-hydroxy-4-methylcyclohexylamino)-8-(2,3,6-trifluorophenylamino)-9H-purin-9-yl)cyclohexanecarboxamide] it was more than 1 µM; in that of `NC(=O)[C@H]1CC[C@@H](n2c(Nc3c(F)ccc(Cl)c3F)nc3cnc(NC4CCC(F)(F)CC4)nc32)CC1` [Example 291, (1s,4s)-4-(8-(3-chloro-2,6-difluorophenylamino)-2-(4,4-difluorocyclohexylamino)-9H-purin-9-yl)cyclohexanecarboxamide], 0.5 to 1 µM.

The same experiment, now with this note: Homo sapiens; Lox-IMVI anti-proliferative assay, IC50 activity level; read-out: Activity.
On to `C[C@]1(C(N)=O)CC[C@@H](n2c(Nc3c(F)cc(F)cc3F)nc3cnc(N[C@@H]4CCC[C@H](O)C4)nc32)CC1` [Example 563, (1S,4s)-4-(2-((1R,3S)-3-hydroxycyclohexylamino)-8-(2,4,6-trifluorophenylamino)-9H-purin-9-yl)-1-methylcyclohexanecarboxamide], for which the IC50 was more than 1 µM.

In the case of `NC(=O)[C@H]1CC[C@@H](n2c(Nc3c(Cl)cc(Cl)cc3Cl)nc3cnc(N[C@H]4CCCC[C@@H](O)C4)nc32)CC1` [Example 444, (1R,4s)-4-(2-((1S,3R)-3-hydroxycycloheptylamino)-8-(2,4,6-trichlorophenylamino)-9H-purin-9-yl)cyclohexanecarboxamide], the IC50 was more than 1 µM. On the same count and under the same terms, for `NC(=O)[C@H]1CC[C@@H](n2c(Nc3c(F)cc(F)cc3Cl)nc3cnc(N[C@@H]4CCCC[C@H](O)C4)nc32)CC1` [Example 437, (1S,4s)-4-(8-(2-chloro-4,6-difluorophenylamino)-2-((1R,3S)-3-hydroxycycloheptylamino)-9H-purin-9-yl)cyclohexanecarboxamide] the value was more than 1 µM; for `NC(=O)[C@H]1CC[C@@H](n2c(Nc3c(Cl)cc(Cl)cc3Cl)nc3cnc(N[C@H]4CCC(F)(F)C4)nc32)CC1` [Example 594, (1R,4s)-4-(2-((S)-3,3-difluorocyclopentylamino)-8-(2,4,6-trichlorophenylamino)-9H-purin-9-yl)cyclohexanecarboxamide], 0.25 to 0.5 µM.

Take `NC(=O)[C@H]1CC[C@@H](n2c(Nc3c(F)cc(Cl)cc3F)nc3cnc(N[C@@H]4CCO[C@H](CO)C4)nc32)CC1` [Example 445, (1S,4s)-4-(8-(4-chloro-2,6-difluorophenylamino)-2-((2S,4R)-2-(hydroxymethyl)tetrahydro-2H-pyran-4-ylamino)-9H-purin-9-yl)cyclohexanecarboxamide]: the IC50 lay in the range of 0.25 to 0.5 µM.

Consider `NC(=O)[C@H]1CC[C@@H](n2c(Nc3c(F)cc(Cl)cc3Cl)nc3cnc(N[C@H]4CCC[C@H](O)C4)nc32)CC1` [Example 464, (1R,4s)-4-(8-(2,4-dichloro-6-fluorophenylamino)-2-((1S,3S)-3-hydroxycyclohexylamino)-9H-purin-9-yl)cyclohexanecarboxamide], for which the IC50 fell in the range of 0.5 to 1 µM. Take `C[C@]1(C(N)=O)CC[C@@H](n2c(Nc3c(F)cc(F)cc3Cl)nc3cnc(N[C@@H]4CCC[C@H](O)C4)nc32)CC1` [Example 576, (1S,4s)-4-(8-(2-chloro-4,6-difluorophenylamino)-2-((1R,3S)-3-hydroxycyclohexylamino)-9H-purin-9-yl)-1-methylcyclohexanecarboxamide]: the IC50 was in the range of 0.25 to 0.5 µM.

The experiment is the same for the next values; noted with them: Homo sapiens; Lox-IMVI melanoma cell line, anti-proliferative assay; read-out: Activity (IC50 activity level).
For the compound `Cc1ccc(S(=O)(=O)N2CCC[C@@H](Nc3ncc4nc(Nc5c(F)cc(Cl)cc5F)n([C@H]5CC[C@@H](C(N)=O)CC5)c4n3)C2)cc1` [Example 792, (1S,4s)-4-(8-(4-chloro-2,6-difluorophenylamino)-2-((R)-1-tosylpiperidin-3-ylamino)-9H-purin-9-yl)cyclohexanecarboxamide], the IC50 was more than 1 µM. The same measure, in the same setting: for `CC(C)OC(=O)N1CCC[C@@H](Nc2ncc3nc(Nc4c(Cl)cc(C#N)cc4Cl)n([C@H]4CC[C@@H](C(N)=O)CC4)c3n2)C1` [Example 769, (R)-isopropyl 3-(9-((1s,4S)-4-carbamoylcyclohexyl)-8-(2,6-dichloro-4-cyanophenylamino)-9H-purin-2-ylamino)piperidine-1-carboxylate] the value was 0.5 to 1 µM; for `NC(=O)[C@H]1CC[C@@H](n2c(Nc3c(F)cc(Cl)cc3Cl)nc3cnc(N[C@@H]4CCCN(Cc5ccccc5)C4)nc32)CC1` [Example 758, (1S,4s)-4-(2-((R)-1-benzylpiperidin-3-ylamino)-8-(2,4-dichloro-6-fluorophenylamino)-9H-purin-9-yl)cyclohexanecarboxamide], more than 1 µM. Still for that read-out and setting: for `C[C@]1(C(N)=O)CC[C@@H](n2c(Nc3c(Cl)cc(Cl)cc3Cl)nc3cnc(N[C@H]4CCOC[C@H]4F)nc32)CC1` [Example 719, (1R,4s)-4-(2-((3S,4S)-3-fluorotetrahydro-2H-pyran-4-ylamino)-8-(2,4,6-trichlorophenylamino)-9H-purin-9-yl)-1-methylcyclohexanecarboxamide] the value was less than 0.25 µM; for `C[C@]1(C(N)=O)CC[C@@H](n2c(Nc3c(Cl)cc(C#N)cc3Cl)nc3cnc(NC4CC(F)(F)C4)nc32)CC1` [Example 666, (1s,4s)-4-(8-(2,6-dichloro-4-cyanophenylamino)-2-(3,3-difluorocyclobutylamino)-9H-purin-9-yl)-1-methylcyclohexanecarboxamide], less than 0.25 µM; for `C[C@]1(C(N)=O)CC[C@@H](n2c(Nc3c(Cl)cc(C#N)cc3Cl)nc3cnc(N[C@@H]4CC[C@@H](O)C4)nc32)CC1` [Example 641, (1S,4s)-4-(8-(2,6-dichloro-4-cyanophenylamino)-2-((1R,3R)-3-hydroxycyclopentylamino)-9H-purin-9-yl)-1-methylcyclohexanecarboxamide], less than 0.25 µM. Same read-out and setting: for `CC(C)N1CCC[C@@H](Nc2ncc3nc(Nc4c(F)cc(Cl)cc4Cl)n([C@H]4CC[C@@H](C(N)=O)CC4)c3n2)C1` [Example 741, (1S,4s)-4-(8-(2,4-dichloro-6-fluorophenylamino)-2-((R)-1-isopropylpiperidin-3-ylamino)-9H-purin-9-yl)cyclohexanecarboxamide] the value was more than 1 µM.

These data come from patent US11590139B2, “Substituted aminopurine compounds, compositions thereof, and methods of treatment therewith” (Signal Pharmaceuticals, LLC, priority 2014, dated 2023).
